These results are taken from BindingDB's records for doi:10.1111/j.1476-5381.1995.tb14977.x (Syntex Discovery Research, 1995).

“And” between values parts separate entries of the source, which are not always exact repeats. Identical values can stand only once.

Assay [1] concerns the target 5-hydroxytryptamine receptor 2B (Homo sapiens, UniProt P41595).
Assay [2] addresses T1, 5-hydroxytryptamine receptor 2C (Homo sapiens, UniProt P28335).
T1 sequence (P28335 whole entry): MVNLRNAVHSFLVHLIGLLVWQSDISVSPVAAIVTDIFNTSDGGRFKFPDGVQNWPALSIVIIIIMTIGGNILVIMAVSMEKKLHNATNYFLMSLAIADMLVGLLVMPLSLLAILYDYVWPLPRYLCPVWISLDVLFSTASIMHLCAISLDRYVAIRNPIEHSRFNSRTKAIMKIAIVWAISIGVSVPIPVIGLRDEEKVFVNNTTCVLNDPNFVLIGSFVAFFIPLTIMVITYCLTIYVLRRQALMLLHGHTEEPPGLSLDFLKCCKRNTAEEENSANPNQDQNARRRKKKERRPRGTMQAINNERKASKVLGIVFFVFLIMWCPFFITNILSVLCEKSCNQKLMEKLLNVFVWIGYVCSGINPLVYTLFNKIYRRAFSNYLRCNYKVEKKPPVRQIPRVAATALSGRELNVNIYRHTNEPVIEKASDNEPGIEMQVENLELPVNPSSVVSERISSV

Assay [3] concerns the target T2, 5-hydroxytryptamine receptor 2C (Rattus norvegicus, UniProt P08909).
T2 sequence (P08909 whole entry): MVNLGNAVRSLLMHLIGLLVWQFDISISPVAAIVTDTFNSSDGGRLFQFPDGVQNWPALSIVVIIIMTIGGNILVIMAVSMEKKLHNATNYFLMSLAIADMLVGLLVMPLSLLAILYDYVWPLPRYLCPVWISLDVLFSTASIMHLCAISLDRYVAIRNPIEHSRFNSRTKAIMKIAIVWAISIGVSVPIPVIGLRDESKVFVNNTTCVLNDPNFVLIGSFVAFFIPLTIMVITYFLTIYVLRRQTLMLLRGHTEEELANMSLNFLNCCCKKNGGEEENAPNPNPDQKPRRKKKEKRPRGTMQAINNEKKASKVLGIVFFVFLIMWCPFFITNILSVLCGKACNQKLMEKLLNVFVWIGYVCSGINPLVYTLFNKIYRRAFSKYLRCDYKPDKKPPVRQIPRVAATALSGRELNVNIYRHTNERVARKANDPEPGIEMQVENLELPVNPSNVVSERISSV

The target of assay [4] is 5-hydroxytryptamine receptor 2B (Rattus norvegicus, UniProt P30994).
Sequence of 5-hydroxytryptamine receptor 2B (Rattus norvegicus, UniProt P30994) (P30994 whole entry): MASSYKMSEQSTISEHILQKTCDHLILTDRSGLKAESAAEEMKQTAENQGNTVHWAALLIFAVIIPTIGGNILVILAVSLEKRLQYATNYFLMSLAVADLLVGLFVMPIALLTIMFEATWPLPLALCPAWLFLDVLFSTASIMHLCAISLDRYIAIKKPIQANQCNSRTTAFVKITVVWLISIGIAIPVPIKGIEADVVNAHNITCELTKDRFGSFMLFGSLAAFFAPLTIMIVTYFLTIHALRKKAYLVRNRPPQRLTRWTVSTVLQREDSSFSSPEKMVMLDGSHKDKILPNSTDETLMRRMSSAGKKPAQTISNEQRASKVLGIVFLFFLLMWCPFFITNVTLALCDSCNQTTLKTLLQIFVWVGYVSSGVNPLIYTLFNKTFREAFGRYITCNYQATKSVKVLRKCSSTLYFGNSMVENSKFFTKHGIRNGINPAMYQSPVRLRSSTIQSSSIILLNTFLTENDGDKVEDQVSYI

Sequence of 5-hydroxytryptamine receptor 2B (Homo sapiens, UniProt P41595) (P41595 whole entry): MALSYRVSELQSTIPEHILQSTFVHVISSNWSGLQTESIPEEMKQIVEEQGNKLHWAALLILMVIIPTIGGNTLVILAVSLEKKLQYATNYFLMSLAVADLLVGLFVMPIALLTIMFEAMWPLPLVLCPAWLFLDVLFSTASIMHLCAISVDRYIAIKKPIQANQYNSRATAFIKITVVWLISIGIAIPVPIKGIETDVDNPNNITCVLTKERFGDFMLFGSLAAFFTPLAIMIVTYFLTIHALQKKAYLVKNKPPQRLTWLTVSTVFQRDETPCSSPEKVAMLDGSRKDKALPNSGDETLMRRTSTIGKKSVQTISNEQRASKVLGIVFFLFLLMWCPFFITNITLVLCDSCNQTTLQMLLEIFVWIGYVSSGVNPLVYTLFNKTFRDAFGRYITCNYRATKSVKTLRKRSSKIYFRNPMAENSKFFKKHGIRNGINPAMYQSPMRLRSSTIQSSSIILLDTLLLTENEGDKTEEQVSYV

Usually Ki stands for the equilibrium dissociation constant of an inhibitor or competing ligand from its target. Consider `Cc1nc2sccn2c(=O)c1CCN1CCC(=C(c2ccc(F)cc2)c2ccc(F)cc2)CC1`, for which the Ki in assay [1] is 5.01 nM; in assay [2], 0.25 nM.
Take `CC[C@@H](CO)NC(=O)[C@@H]1C=C2c3cccc4c3c(cn4C)C[C@H]2N(C)C1`: the figures for the Ki in assay [3] and in assay [2] were 1.99 nM and 1.58 nM, respectively.
Regarding `O=C(c1ccc(F)cc1)C1CCN(CCn2c(=O)[nH]c3ccccc3c2=O)CC1` [3-(2-{4-[(4-fluorophenyl)carbonyl]piperidin-1-yl}ethyl)-1,2,3,4-tetrahydroquinazoline-2,4-dione], the results for the Ki in assay [3] and in assay [4] were 63.1 nM and 3980 nM, respectively.
Consider `O=C(CCCN1CCC2(CC1)C(=O)NCN2c1ccccc1)c1ccc(F)cc1` [8-[4-(4-fluorophenyl)-4-oxidanylidene-butyl]-1-phenyl-1,3,8-triazaspiro[4.5]decan-4-one], for which the Ki in assay [1] is 1580 nM; in assay [2], 501 nM and 1000 nM.
Regarding `Cn1ccc2cc(NC(=O)Nc3cccnc3)ccc21` [SB 200646], the Ki in assay [1] stood at 631 nM; in assay [3], 1000 nM; in assay [2], 501 nM.
Consider `Clc1cccc(N2CCNCC2)c1` [mCPP], for which the Ki is 126 nM in assay [3] and 25.1 nM in assay [4].
Regarding `COC(=O)[C@@H]1[C@H]2C[C@H]3c4[nH]c5ccccc5c4CCN3C[C@@H]2CC[C@@H]1O` [yohimbic acid methyl ester], the Ki is more than 10000 nM in assay [3] and 50.1 nM in assay [4].
